Measurements reported in article PMC8232644, “Self-Supporting Hydrogels Based on Fmoc-Derivatized Cationic Hexapeptides for Potential Biomedical Applications” (Biomedicines, 2021).
In brackets after ≈: the same amount, converted by molar mass. Residues, ends and D or L forms follow the SMILES beside them. *: point of attachment. Fmoc = O=C(OCC1c2ccccc2-c2ccccc21)*

Legend:
[1] = Water solubility of peptides; format: physicochemical; details: from solid: 10 mg lyophilized peptide in 1.0 mL water, sonicated 30 min at room temperature, centrifuged 5 min 13,000 rpm; UV at 301 nm (ε 7800 M^−1 cm^−1)
Method: Peptide solutions were prepared by dissolving 10 mg of each lyophilized peptide in 1.0 mL of water. These suspensions were sonicated for 30 min at room temperature; after centrifugation (5 min at 13,000 rpm), the concentration was spectroscopically determined on UV–Vis Thermo Fisher Scientific Inc. (Wilmington, DE, USA) NanoDrop 2000 c spectrophotometer equipped with a 1.0 cm quartz cuvette (Hellma). The quantification of the concentration was assessed using the molar absorptivity (ε) of 7800 M^−1 cm^−1 for Fmoc group at λ = 301 nm.
Due to their different sequence, each peptide has a different water solubility (see Table 2). […] The capability of peptides to self-assemble was initially checked by fluorescence spectroscopy, recording the emission spectra at the maximum concentration of the peptide. Peptides containing the FF motif were excited at both 257 and 301 nm, which corresponded to the excitation wavelength of phenyl and the Fmoc group, respectively, whereas peptides lacking FF were excited only at 301 nm. All the peptide derivatives, upon excitation at 301 nm, have an emission peak at 328 nm, red-shifted of 15 nm, with respect to the peak at 313 nm, which is expected for the monomeric form (see Figure S6).

[2] = In vitro hydrogel degradation in Ringer's solution; format: physicochemical; details: hydrogel with 1.5 mL Ringer’s solution at 37 °C for 20 days (method: 40 days); ΔW = (Wo − Wt)/Wo
Method: In vitro hydrogel degradation assay was performed by adding a fixed amount (1.5 mL) of Ringer’s solution (12.9 mg of NaCl, 0.45 mg of KCl and 0.48 mg of CaCl2) to the preformed hydrogels and by placing them in an oven at 37 °C for 40 days. Hydrogels were weighed before the addition of the Ringer’s solution (Wo) and after its removal (Wt). The weight loss ratio (ΔW) was calculated as percentage according to Equation (2) ΔW = ((Wo − Wt))/Wo %(2)
As potential tissue engineering matrices, PHG materials would be directly exposed to biological fluids. According to this consideration, the degradation test was performed to evaluate the matrices stability in an in vivo mimetic environment. The biological setting was mimed, incubating the hydrogels with Ringer’s solution at 37 °C for 20 days. The stability, reported as ΔW, calculated using Equation (2), was estimated as weight loss. ΔW values determined for Fmoc-K1, Fmoc-K2, and Fmoc-K3 were 43.2, 39.7, and 41.8%, respectively. In comparison to other FmocFF peptide-based hydrogels, all tested samples undergo faster and more remarkable degradation. This behavior is probably ascribable to the less rigid nature of Fmoc-K HGs. As an alternative, it can also be hypothesized that the large amount of salt in the Ringer’s solution could improve the solubility of K peptides and, in turn, accelerate the loss of 3D-organization of the matrix. It is worth it to note that an efficient in vivo degradation by biological fluids of hydrogels in their single components could allow achieving a rapid excretion of the matrix, which means a high biocompatibility.

[3] = system: 3T3-L1 cells; format: cell-based, mouse; details: for Cell adhesion (% of adherent viable cells on seeded cells): 16 h; for cell viability of adherent cells: 72 h
Method: (§1) Aneuploid immortal keratinocyte cell line HaCat and mouse pre-adipocyte cell line 3T3-L1 were obtained from IRCCS-SDN Biobank (10.5334/ojb.26) and grown in Dulbecco’s Modified Medium (DMEM) supplemented with 10% fetal bovine serum (FBS) and 1% GlutaMAX. Cells were incubated at 37 °C and 5% CO2 and seeded in 100 mm culture dishes.
For the adhesion test, 3T3-L1 cells were seeded in 96-well plates at a density of 0.5 ×10^4 cells per well. Before seeding, each well was filled with the indicated hydrogels; 16 h after seeding, cells were stained with Acridine Orange/Propidium Iodide stain. Cell adhesion was reported as % of adherent viable cell (fluorescing green) on total plated cells. Viability upon adhesion was reported as % viable cells and total adherent cells. Duplication rate was reported as the ratio between viable cells upon 48 h from seeding and the number of viable adherent cells upon 16 h from seeding. In order to test the toxicity of hydrogels conditioned media, we used MTS assay, (CellTiter 96® AQueous One Solution Cell Proliferation Assay, Promega, Italy). For MTS assays, HaCat and 3T3-L1 cells were seeded in 96-well plates at a density of 0.7 × 10^4 cells per well. To obtain the conditioned media, hydrogels formed in a hollow plastic chamber sealed at one end with a porous membrane, were incubated with 2 mL of completed DMEM medium for 16 h in sterile condition at RT [23]. No color change of the media was detected following the incubation and the tested pH value (7.5–7.8) was suitable for culturing added to the wells. The conditioned media were used to grow the cells for 24, 48, and 72 h. At the end of the treatment, cell viability was assessed by the MTS assay. In brief, MTS was added to the cells at a final concentration of 0.5 mg/mL. After 30 min of incubation at 37 °C, the samples were analyzed using the VICTOR Nivo (Perkin Elmer, Buckinghamshire, UK) at 490 nm absorbance. Cell survival was expressed as percentage of viable cells in the presence of hydrogels, compared to control cells grown in their absence. MTS assay was repeated twice with similar results.
To test the ability of the three hydrogels to support in vitro growth of eukaryotic cells, we culture 3T3-L1 (mouse fibroblast) cells on Fmoc-K1, K2, and K3. As first, we measured the number of cells able to adhere to hydrogels. An efficient cell adhesion is necessary for an optimal growth of the culture, and growth-supports un-favoring cell adhesion cause cell cycle arrest and induce apoptosis. […] Compared to cells plated in the absence of hydrogels, Fmoc-K1 and Fmoc-K2 disfavored cell adhesion, allowing cell attachment to 20 ± 3%, 36 ± 8% of the seeded cells, respectively.

[4] = cited from earlier work
Text: Hydrogels are matrices able to absorb water and swell in the media without dissolving. The calculated degree of swelling (q) was 55.2%, 56.6%, and 54.3% for Fmoc-K1, Fmoc-K2, and Fmoc-K3, respectively.

[5] = system: 3T3-L1 cells; format: cell-based, mouse; details: 24 h
Method: as §1
For the adhesion test, 3T3-L1 cells were seeded in 96-well plates at a density of 0.5 ×10^4 cells per well. Before seeding, each well was filled with the indicated hydrogels; 16 h after seeding, cells were stained with Acridine Orange/Propidium Iodide stain. Cell adhesion was reported as % of adherent viable cell (fluorescing green) on total plated cells. Viability upon adhesion was reported as % viable cells and total adherent cells. […] No color change of the media was detected following the incubation and the tested pH value (7.5–7.8) was suitable for culturing added to the wells. […] At the end of the treatment, cell viability was assessed by the MTS assay. […] After 30 min of incubation at 37 °C, the samples were analyzed using the VICTOR Nivo (Perkin Elmer, Buckinghamshire, UK) at 490 nm absorbance. Cell survival was expressed as percentage of viable cells in the presence of hydrogels, compared to control cells grown in their absence. […]

Row | Molecule | solubility thermodynamic at 30 min [1] | weight loss ratio ΔW (stability) [2] | cell death of the attached cells [3] | Cell adhesion (% of adherent viable cells on seeded cells) [3] | cell viability of adherent cells [3] | swelling degree [4] | viability (cell survival vs control) [5]
1 | CC[C@H](C)[C@H](NC(=O)[C@H](Cc1ccccc1)NC(=O)[C@H](Cc1ccccc1)NC(=O)OCC1c2ccccc2-c2ccccc21)C(=O)N[C@@H](CC(C)C)C(=O)N[C@H](C(=O)N[C@@H](C)C(=O)NCC(=O)N[C@@H](CCCCN)C(N)=O)C(C)C [FmocFF-K1] (Fmoc-FFILVAGK-NH2) | 0.508 mg/mL (≈ 455 µM) | – | – | – | – | – | –
2 | CC[C@H](C)[C@H](NC(=O)[C@H](C)NC(=O)OCC1c2ccccc2-c2ccccc21)C(=O)N[C@H](C(=O)N[C@@H](C)C(=O)NCC(=O)N[C@@H](CCCCN)C(N)=O)C(C)C [Fmoc-K3] (Fmoc-AIVAGK-NH2) | 3.21 mg/mL (≈ 4120 µM) | 41.8% | 3 ± 1% | 85 ± 12% | 94 ± 3% | – | –
3 | Fmoc-diphenylalanine [FmocFF] | – | – | – | – | – | around 40% | –
4 | CC[C@H](C)[C@H](NC(=O)[C@H](CC(C)C)NC(=O)[C@H](Cc1ccccc1)NC(=O)[C@H](Cc1ccccc1)NC(=O)OCC1c2ccccc2-c2ccccc21)C(=O)N[C@H](C(=O)N[C@@H](C)C(=O)NCC(=O)N[C@@H](CCCCN)C(N)=O)C(C)C [FmocFF-K2] (Fmoc-FFLIVAGK-NH2) | 0.253 mg/mL (≈ 227 µM) | – | – | – | – | – | –
5 | CC[C@H](C)[C@H](NC(=O)OCC1c2ccccc2-c2ccccc21)C(=O)N[C@@H](CC(C)C)C(=O)N[C@H](C(=O)N[C@@H](C)C(=O)NCC(=O)N[C@@H](CCCCN)C(N)=O)C(C)C [Fmoc-K1] (Fmoc-ILVAGK-NH2) | 1.24 mg/mL (≈ 1510 µM) | 43.2% | 9 ± 3% | 20 ± 3% | 92 ± 3% | – | above 70%
6 | CC[C@H](C)[C@H](NC(=O)[C@H](CC(C)C)NC(=O)OCC1c2ccccc2-c2ccccc21)C(=O)N[C@H](C(=O)N[C@@H](C)C(=O)NCC(=O)N[C@@H](CCCCN)C(N)=O)C(C)C [Fmoc-K2] (Fmoc-LIVAGK-NH2) | 2.56 mg/mL (≈ 3120 µM) | 39.7% | 11 ± 2% | 36 ± 8% | 95 ± 3% | – | –
7 | CC[C@H](C)[C@H](NC(=O)[C@H](C)NC(=O)[C@H](Cc1ccccc1)NC(=O)[C@H](Cc1ccccc1)NC(=O)OCC1c2ccccc2-c2ccccc21)C(=O)N[C@H](C(=O)N[C@@H](C)C(=O)NCC(=O)N[C@@H](CCCCN)C(N)=O)C(C)C [FmocFF-K3] (Fmoc-FFAIVAGK-NH2) | 0.345 mg/mL (≈ 321 µM) | – | – | – | – | – | –
